Several values for one entry are separate records, joined by “and”; a condition that tells them apart may be missing. Equal values may be shown once.
Key:
[1] = molecular target: Bromodomain-containing protein 7 (Homo sapiens) (UniProt Q9NPI1); settings: Compound concentration 10.0 uM, Protein concentration 2.0 uM
[2] = molecular target: PH-interacting protein (Homo sapiens) (UniProt Q8WWQ0); settings: Compound concentration 10.0 uM, Protein concentration 2.0 uM
[3] = molecular target: Histone acetyltransferase p300 (Homo sapiens) (UniProt Q09472); settings: Compound concentration 10.0 uM, Protein concentration 2.0 uM
[4] = molecular target: Bromodomain-containing protein 9 (Homo sapiens) (UniProt Q9H8M2); settings: Compound concentration 10.0 uM, Protein concentration 2.0 uM
[5] = molecular target: Bromodomain and WD repeat-containing protein 3 (Homo sapiens) (UniProt Q6RI45); settings: Compound concentration 10.0 uM, Protein concentration 2.0 uM
[6] = molecular target: Transcription initiation factor TFIID subunit 1 (Homo sapiens) (UniProt P21675); settings: Compound concentration 10.0 uM, Protein concentration 2.0 uM
[7] = molecular target: Transcription initiation factor TFIID subunit 1-like (Homo sapiens) (UniProt Q8IZX4); settings: Compound concentration 10.0 uM, Protein concentration 2.0 uM
[8] = molecular target: SWI/SNF-related matrix-associated actin-dependent regulator of chromatin subfamily A member 2 (Homo sapiens) (UniProt P51531); settings: Compound concentration 10.0 uM, Protein concentration 2.0 uM
[9] = molecular target: Protein polybromo-1 (Homo sapiens) (UniProt Q86U86); settings: Compound concentration 10.0 uM, Protein concentration 2.0 uM
[10] = molecular target: Bromodomain testis-specific protein (Homo sapiens) (UniProt Q58F21); settings: Compound concentration 10.0 uM, Protein concentration 2.0 uM
[11] = molecular target: Bromodomain and PHD finger-containing protein 3 (Homo sapiens) (UniProt Q9ULD4); settings: Compound concentration 10.0 uM, Protein concentration 2.0 uM
[12] = molecular target: ATPase family AAA domain-containing protein 2B (Homo sapiens) (UniProt Q9ULI0); settings: Compound concentration 10.0 uM, Protein concentration 2.0 uM
[13] = molecular target: Bromodomain-containing protein 4 (Homo sapiens) (UniProt O60885); settings: Compound concentration 10.0 uM, Protein concentration 2.0 uM
[14] = molecular target: Nuclear body protein SP140-like protein (Homo sapiens) (UniProt Q9H930); settings: Compound concentration 10.0 uM, Protein concentration 2.0 uM
[15] = molecular target: Nuclear body protein SP140 (Homo sapiens) (UniProt Q13342); settings: Compound concentration 10.0 uM, Protein concentration 2.0 uM
[16] = molecular target: Bromodomain-containing protein 4 (Homo sapiens) (UniProt O60885); settings: Compound concentration 10.0 uM, Protein concentration 2.0 uM; remark: listed apart in the source
[17] = molecular target: Histone-lysine N-methyltransferase ASH1L (Homo sapiens) (UniProt Q9NR48); settings: Compound concentration 10.0 uM, Protein concentration 2.0 uM
[18] = molecular target: Bromodomain testis-specific protein (Homo sapiens) (UniProt Q58F21); settings: Compound concentration 10.0 uM, Protein concentration 2.0 uM; remark: listed apart in the source
[19] = molecular target: Protein polybromo-1 (Homo sapiens) (UniProt Q86U86); settings: Compound concentration 10.0 uM, Protein concentration 2.0 uM; remark: listed apart in the source
[20] = molecular target: Histone acetyltransferase KAT2A (Homo sapiens) (UniProt Q92830); settings: Compound concentration 10.0 uM, Protein concentration 2.0 uM
[21] = molecular target: Bromodomain-containing protein 3 (Homo sapiens) (UniProt Q15059); settings: Compound concentration 10.0 uM, Protein concentration 2.0 uM
[22] = molecular target: Protein polybromo-1 (Homo sapiens) (UniProt Q86U86); settings: Compound concentration 10.0 uM, Protein concentration 2.0 uM; remark: listed apart in the source
[23] = molecular target: Protein polybromo-1 (Homo sapiens) (UniProt Q86U86); settings: Compound concentration 10.0 uM, Protein concentration 2.0 uM; remark: listed apart in the source
[24] = molecular target: Bromodomain-containing protein 3 (Homo sapiens) (UniProt Q15059); settings: Compound concentration 10.0 uM, Protein concentration 2.0 uM; remark: listed apart in the source
[25] = molecular target: Nucleosome-remodeling factor subunit BPTF (Homo sapiens) (UniProt Q12830); settings: Compound concentration 10.0 uM, Protein concentration 2.0 uM
[26] = molecular target: ATPase family AAA domain-containing protein 2 (Homo sapiens) (UniProt Q6PL18); settings: Compound concentration 10.0 uM, Protein concentration 2.0 uM
[27] = molecular target: Protein polybromo-1 (Homo sapiens) (UniProt Q86U86); settings: Compound concentration 10.0 uM, Protein concentration 2.0 uM; remark: listed apart in the source
[28] = molecular target: E3 ubiquitin-protein ligase TRIM33 (Homo sapiens) (UniProt Q9UPN9); settings: Compound concentration […], Protein concentration 200.0 uM
[29] = molecular target: Bromodomain adjacent to zinc finger domain protein 2A (Homo sapiens) (UniProt Q9UIF9); settings: Compound concentration 10.0 uM, Protein concentration 2.0 uM
[30] = molecular target: Bromodomain-containing protein 2 (Homo sapiens) (UniProt P25440); settings: Compound concentration 10.0 uM, Protein concentration 2.0 uM
[31] = molecular target: Bromodomain adjacent to zinc finger domain protein 1A (Homo sapiens) (UniProt Q9NRL2); settings: Compound concentration 10.0 uM, Protein concentration 2.0 uM
[32] = molecular target: Histone-lysine N-methyltransferase 2A (Homo sapiens) (UniProt Q03164); settings: Compound concentration 10.0 uM, Protein concentration 2.0 uM
[33] = molecular target: Tyrosine-protein kinase BAZ1B (Homo sapiens) (UniProt Q9UIG0); settings: Compound concentration 10.0 uM, Protein concentration 2.0 uM
[34] = molecular target: Transcription intermediary factor 1-alpha (Homo sapiens) (UniProt O15164); settings: Compound concentration 10.0 uM, Protein concentration 2.0 uM
[35] = molecular target: Transcription initiation factor TFIID subunit 1-like (Homo sapiens) (UniProt Q8IZX4); settings: Compound concentration 10.0 uM, Protein concentration 2.0 uM; remark: listed apart in the source
[36] = molecular target: Bromodomain-containing protein 2 (Homo sapiens) (UniProt P25440); settings: Compound concentration 10.0 uM, Protein concentration 2.0 uM; remark: listed apart in the source
[37] = molecular target: Transcription intermediary factor 1-alpha (Homo sapiens) (UniProt O15164); settings: Compound concentration 10.0 uM, Protein concentration 2.0 uM; remark: listed apart in the source
[38] = molecular target: Transcription initiation factor TFIID subunit 1 (Homo sapiens) (UniProt P21675); settings: Compound concentration 10.0 uM, Protein concentration 2.0 uM; remark: listed apart in the source
[39] = molecular target: SWI/SNF-related matrix-associated actin-dependent regulator of chromatin subfamily A member 4 (Homo sapiens) (UniProt P51532); settings: Compound concentration 10.0 uM, Protein concentration 2.0 uM
[40] = molecular target: Transcription intermediary factor 1-beta (Homo sapiens) (UniProt Q13263); settings: Compound concentration 10.0 uM, Protein concentration 2.0 uM
[41] = molecular target: Histone acetyltransferase KAT2B (Homo sapiens) (UniProt Q92831); settings: Compound concentration 10.0 uM, Protein concentration 2.0 uM
[42] = molecular target: Bromodomain adjacent to zinc finger domain protein 2B (Homo sapiens) (UniProt Q9UIF8); settings: Compound concentration 10.0 uM, Protein concentration 2.0 uM
[43] = molecular target: Protein polybromo-1 (Homo sapiens) (UniProt Q86U86); settings: Compound concentration 10.0 uM, Protein concentration 2.0 uM; remark: listed apart in the source

Protein polybromo-1 (Homo sapiens), sequence (Q86U86 whole entry): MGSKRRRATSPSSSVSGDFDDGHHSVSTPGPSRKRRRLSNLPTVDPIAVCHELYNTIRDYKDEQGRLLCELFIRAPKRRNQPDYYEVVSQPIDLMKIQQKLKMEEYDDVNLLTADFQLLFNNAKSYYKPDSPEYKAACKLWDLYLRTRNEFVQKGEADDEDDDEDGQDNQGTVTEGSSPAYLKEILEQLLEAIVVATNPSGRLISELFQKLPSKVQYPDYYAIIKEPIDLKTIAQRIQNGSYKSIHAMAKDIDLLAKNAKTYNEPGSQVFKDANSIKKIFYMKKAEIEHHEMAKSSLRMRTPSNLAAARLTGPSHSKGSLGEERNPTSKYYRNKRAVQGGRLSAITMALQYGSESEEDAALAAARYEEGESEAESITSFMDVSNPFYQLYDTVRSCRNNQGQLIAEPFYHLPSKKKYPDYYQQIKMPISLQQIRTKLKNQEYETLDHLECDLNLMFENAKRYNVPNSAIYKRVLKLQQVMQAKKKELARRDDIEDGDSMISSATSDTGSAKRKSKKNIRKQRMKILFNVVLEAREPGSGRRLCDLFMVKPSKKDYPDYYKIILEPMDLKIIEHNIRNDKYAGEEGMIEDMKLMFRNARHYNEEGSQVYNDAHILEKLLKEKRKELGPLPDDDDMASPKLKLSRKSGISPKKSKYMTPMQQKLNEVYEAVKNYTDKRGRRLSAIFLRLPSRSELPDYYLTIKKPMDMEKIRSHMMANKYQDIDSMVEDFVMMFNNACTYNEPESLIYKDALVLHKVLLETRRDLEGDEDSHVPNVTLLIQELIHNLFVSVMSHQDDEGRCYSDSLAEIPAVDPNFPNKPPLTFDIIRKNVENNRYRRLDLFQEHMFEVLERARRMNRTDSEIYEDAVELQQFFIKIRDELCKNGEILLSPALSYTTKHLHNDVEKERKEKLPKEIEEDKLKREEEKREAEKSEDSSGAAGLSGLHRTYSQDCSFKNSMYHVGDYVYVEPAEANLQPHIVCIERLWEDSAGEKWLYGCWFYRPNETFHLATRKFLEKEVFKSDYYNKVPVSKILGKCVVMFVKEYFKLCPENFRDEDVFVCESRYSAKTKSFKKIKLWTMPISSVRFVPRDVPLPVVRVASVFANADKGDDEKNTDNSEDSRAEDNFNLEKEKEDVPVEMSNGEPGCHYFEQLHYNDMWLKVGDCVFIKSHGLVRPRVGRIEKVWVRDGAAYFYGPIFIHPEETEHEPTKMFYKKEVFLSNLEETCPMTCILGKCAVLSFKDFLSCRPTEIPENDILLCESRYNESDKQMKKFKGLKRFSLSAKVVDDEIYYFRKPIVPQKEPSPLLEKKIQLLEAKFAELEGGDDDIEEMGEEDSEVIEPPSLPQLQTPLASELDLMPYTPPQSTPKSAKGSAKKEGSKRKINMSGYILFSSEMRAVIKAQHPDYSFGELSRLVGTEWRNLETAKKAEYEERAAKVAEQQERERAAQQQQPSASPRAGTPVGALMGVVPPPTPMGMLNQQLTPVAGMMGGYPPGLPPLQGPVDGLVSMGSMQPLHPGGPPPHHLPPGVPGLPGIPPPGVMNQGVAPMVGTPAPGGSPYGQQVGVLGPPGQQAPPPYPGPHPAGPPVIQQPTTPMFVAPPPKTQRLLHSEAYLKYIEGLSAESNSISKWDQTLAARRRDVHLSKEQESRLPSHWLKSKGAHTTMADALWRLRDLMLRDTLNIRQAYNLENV
Bromodomain-containing protein 3 (Homo sapiens), sequence (Q15059 2-726 limits assumed): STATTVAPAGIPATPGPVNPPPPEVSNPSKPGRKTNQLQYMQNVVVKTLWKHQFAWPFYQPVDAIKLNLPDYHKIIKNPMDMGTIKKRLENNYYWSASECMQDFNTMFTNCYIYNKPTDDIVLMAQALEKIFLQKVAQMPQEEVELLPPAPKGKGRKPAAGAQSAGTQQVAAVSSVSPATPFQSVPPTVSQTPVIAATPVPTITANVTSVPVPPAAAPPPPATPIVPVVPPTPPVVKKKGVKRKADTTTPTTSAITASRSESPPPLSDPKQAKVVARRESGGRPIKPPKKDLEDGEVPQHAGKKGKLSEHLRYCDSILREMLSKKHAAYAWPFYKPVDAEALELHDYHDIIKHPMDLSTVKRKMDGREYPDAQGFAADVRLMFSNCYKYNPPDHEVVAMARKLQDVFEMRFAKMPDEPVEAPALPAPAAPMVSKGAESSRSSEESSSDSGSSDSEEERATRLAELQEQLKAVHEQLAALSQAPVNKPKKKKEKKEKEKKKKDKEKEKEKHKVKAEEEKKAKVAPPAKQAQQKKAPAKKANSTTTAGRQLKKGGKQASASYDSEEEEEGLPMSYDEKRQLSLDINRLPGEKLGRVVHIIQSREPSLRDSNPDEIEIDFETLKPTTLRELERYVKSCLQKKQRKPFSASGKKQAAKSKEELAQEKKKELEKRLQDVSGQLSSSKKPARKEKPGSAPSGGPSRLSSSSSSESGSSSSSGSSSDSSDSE
Transcription initiation factor TFIID subunit 1-like (Homo sapiens), sequence (Q8IZX4 whole entry): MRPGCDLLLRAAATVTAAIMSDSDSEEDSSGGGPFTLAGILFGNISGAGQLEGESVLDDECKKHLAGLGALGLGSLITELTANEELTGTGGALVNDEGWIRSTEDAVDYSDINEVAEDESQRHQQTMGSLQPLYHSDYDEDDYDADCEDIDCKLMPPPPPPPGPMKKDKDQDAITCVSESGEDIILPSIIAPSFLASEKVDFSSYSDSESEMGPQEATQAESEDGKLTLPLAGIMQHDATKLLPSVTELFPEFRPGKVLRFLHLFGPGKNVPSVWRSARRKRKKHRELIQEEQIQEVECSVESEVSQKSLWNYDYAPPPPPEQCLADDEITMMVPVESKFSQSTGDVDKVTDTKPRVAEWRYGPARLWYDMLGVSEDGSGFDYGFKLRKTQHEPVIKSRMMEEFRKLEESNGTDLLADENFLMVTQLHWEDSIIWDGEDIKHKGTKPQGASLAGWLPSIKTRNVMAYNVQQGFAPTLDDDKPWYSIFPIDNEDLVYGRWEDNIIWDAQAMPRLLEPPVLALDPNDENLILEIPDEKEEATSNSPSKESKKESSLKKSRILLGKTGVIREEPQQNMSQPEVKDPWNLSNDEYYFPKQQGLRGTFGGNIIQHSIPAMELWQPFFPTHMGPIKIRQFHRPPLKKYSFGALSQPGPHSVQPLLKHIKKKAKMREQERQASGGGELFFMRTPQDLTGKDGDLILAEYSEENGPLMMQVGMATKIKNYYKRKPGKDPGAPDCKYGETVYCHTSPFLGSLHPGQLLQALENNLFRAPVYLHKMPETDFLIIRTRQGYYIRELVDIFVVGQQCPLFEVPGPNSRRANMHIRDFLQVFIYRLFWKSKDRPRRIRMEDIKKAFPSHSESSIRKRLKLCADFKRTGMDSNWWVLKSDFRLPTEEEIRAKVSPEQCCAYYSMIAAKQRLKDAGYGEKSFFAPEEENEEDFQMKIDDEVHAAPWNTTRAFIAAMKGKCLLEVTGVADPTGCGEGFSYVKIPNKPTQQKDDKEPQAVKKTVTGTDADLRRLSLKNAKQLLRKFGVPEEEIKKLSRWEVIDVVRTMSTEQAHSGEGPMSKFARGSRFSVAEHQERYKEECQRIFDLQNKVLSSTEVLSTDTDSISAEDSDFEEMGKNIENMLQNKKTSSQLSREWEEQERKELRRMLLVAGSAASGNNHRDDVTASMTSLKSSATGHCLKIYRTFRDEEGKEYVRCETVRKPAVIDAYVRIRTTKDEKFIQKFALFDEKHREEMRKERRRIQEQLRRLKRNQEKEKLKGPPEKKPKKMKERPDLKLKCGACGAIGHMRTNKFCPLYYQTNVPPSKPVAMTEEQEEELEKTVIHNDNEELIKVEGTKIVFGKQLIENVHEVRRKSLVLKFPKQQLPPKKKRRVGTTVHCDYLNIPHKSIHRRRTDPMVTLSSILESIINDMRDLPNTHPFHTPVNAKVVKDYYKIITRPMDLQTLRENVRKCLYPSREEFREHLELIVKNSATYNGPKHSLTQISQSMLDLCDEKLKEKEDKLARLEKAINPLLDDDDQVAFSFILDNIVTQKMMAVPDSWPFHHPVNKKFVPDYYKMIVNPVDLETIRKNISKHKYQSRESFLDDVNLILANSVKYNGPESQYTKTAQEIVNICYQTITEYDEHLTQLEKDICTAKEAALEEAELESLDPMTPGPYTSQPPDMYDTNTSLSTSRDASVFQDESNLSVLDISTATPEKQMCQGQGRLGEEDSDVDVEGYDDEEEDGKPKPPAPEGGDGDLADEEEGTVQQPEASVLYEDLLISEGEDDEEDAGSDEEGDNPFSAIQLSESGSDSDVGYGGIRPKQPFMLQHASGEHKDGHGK
Bromodomain-containing protein 2 (Homo sapiens), sequence (P25440 whole entry, looked up, the tested form may be a part): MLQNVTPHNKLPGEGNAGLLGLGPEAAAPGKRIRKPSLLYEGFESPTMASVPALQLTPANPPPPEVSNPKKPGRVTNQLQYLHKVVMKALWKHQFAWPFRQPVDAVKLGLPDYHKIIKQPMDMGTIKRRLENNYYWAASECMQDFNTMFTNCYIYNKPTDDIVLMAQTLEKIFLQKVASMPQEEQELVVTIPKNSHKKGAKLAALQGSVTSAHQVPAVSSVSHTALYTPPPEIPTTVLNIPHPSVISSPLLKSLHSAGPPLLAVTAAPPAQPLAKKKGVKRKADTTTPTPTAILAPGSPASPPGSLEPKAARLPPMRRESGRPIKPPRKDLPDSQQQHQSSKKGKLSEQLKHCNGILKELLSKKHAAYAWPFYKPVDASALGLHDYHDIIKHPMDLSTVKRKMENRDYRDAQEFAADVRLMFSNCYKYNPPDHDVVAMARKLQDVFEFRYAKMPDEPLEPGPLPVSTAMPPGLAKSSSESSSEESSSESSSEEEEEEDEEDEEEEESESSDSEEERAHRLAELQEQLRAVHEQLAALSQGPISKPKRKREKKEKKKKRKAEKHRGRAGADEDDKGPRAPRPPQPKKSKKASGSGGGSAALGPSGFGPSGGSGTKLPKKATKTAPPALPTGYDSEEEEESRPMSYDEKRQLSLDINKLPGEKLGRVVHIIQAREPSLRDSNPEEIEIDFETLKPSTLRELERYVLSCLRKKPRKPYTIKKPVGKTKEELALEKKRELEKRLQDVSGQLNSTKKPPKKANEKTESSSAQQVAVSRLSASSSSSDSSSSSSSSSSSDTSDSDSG

Q: For `COc1ccccc1C(=O)Nc1cc2c(cc1N1CCCC1)n(C)c(=O)n2C`, which ΔTm [1] is on record?
A: The ΔTm was 3.84 °C.

Q: What about the ΔTm [2] of the same compound?
A: The ΔTm was 0.71 °C.

Q: What about the ΔTm [3] of the same compound?
A: Its ΔTm is 0.9 °C.

Q: And the ΔTm [4]?
A: Its ΔTm is 1.21 °C.

Q: What about the ΔTm [5] of the same compound?
A: The ΔTm was -0.2 °C.

Q: And the ΔTm [6]?
A: The ΔTm was 0.9 °C.

Q: What about the ΔTm [7] of the same compound?
A: Its ΔTm is 0.79 °C.

Q: What about the ΔTm [8] of the same compound?
A: Its ΔTm is 0.18 °C.

Q: And the ΔTm [9]?
A: The ΔTm was 0.73 °C.

Q: What about the ΔTm [10] of the same compound?
A: The ΔTm was 0.27 °C.

Q: What about the ΔTm [11] of the same compound?
A: Its ΔTm is 2.36 °C and 1.34 °C.

Q: And the ΔTm [12]?
A: The ΔTm was -0.04 °C.

Q: And the ΔTm [13]?
A: The ΔTm was 0.33 °C.

Q: What about the ΔTm [14] of the same compound?
A: The ΔTm was -0.24 °C.

Q: And the ΔTm [15]?
A: The ΔTm was 0.2 °C.

Q: And the ΔTm [16]?
A: The ΔTm was 1.37 °C.

Q: And the ΔTm [17]?
A: Its ΔTm is 0.36 °C.

Q: And the ΔTm [18]?
A: The ΔTm was 0.18 °C.

Q: And the ΔTm [19]?
A: The ΔTm was -0.35 °C.

Q: What about the ΔTm [20] of the same compound?
A: Its ΔTm is 0.21 °C.

Q: What about the ΔTm [21] of the same compound?
A: The ΔTm was 0.33 °C.

Q: And the ΔTm [22]?
A: The ΔTm was -0.44 °C.

Q: And the ΔTm [23]?
A: Its ΔTm is 0.26 °C.

Q: And the ΔTm [24]?
A: Its ΔTm is 0.74 °C.

Q: And the ΔTm [25]?
A: Its ΔTm is 0.31 °C.

Q: And the ΔTm [26]?
A: The ΔTm was -0.03 °C.

Q: What about the ΔTm [27] of the same compound?
A: Its ΔTm is 0.54 °C.

Q: What about the inhibition [28] of the same compound?
A: Its inhibition is 35.5%.

Q: What about the ΔTm [29] of the same compound?
A: Its ΔTm is 0.5 °C.

Q: What about the ΔTm [30] of the same compound?
A: The ΔTm was 0.74 °C.

Q: What about the ΔTm [31] of the same compound?
A: Its ΔTm is 0.5 °C.

Q: What about the ΔTm [32] of the same compound?
A: The ΔTm was 0.13 °C.

Q: And the ΔTm [33]?
A: Its ΔTm is -0.03 °C.

Q: And the ΔTm [34]?
A: Its ΔTm is 1.35 °C.

Q: What about the ΔTm [35] of the same compound?
A: The ΔTm was 0.31 °C.

Q: What about the ΔTm [36] of the same compound?
A: The ΔTm was 0.75 °C.

Q: What about the ΔTm [37] of the same compound?
A: The ΔTm was 0.72 °C.

Q: What about the ΔTm [38] of the same compound?
A: Its ΔTm is 0.33 °C.

Q: And the ΔTm [39]?
A: The ΔTm was 0.2 °C.

Q: And the ΔTm [40]?
A: Its ΔTm is -0.53 °C.

Q: And the ΔTm [41]?
A: The ΔTm was 2.09 °C.

Q: What about the ΔTm [42] of the same compound?
A: Its ΔTm is 0.88 °C.

Q: What about the ΔTm [43] of the same compound?
A: Its ΔTm is 0.03 °C.

— ChEMBL document CHEMBL4649987, “Benzoisoquinolinediones as Potent and Selective Inhibitors of BRPF2 and TAF1/TAF1L Bromodomains” (ACS Chem Biol, 2017)
